IC50, selectivity ratio and Ki data for ten molecules are collected here from ChEMBL document CHEMBL4130363, “Synthesis and pharmacological evaluation of benzamide derivatives as potent and selective sigma-1 protein ligands” (Eur J Med Chem, 2017).

One series has as its system SH-SY5Y. Kind of series: Cytotoxicity against human SH-SY5Y cells assessed as reduction in cell viability after 72 hrs by MTT assay. The format is cell-based. For orientation: Tetrazolium assays rely on reduction of a dye to a coloured formazan, in cell work by metabolically active cells.
In a further series the test system is S1R (sigma-1 receptor). Kind of series: Selectivity index, ratio of IC50 for human SH-SY5Y cells to Ki for S1R in human Jurkat cell membranes. In kind it is toxicity, cell-based.
Series [1] has as its target Sigma intracellular receptor 2 (Homo sapiens, UniProt Q5BJF2). Put plainly: Displacement of [3H]-DTG from S2R in human Jurkat cell membranes after 1 hr in presence of (+)-pentazocine by liquid scintillation counting.
Series [2] deals with Sigma non-opioid intracellular receptor 1 (Homo sapiens, UniProt Q99720). Put plainly: Displacement of [3H](+)-pentazocine from S1R in human Jurkat cell membranes after 2 hrs by liquid scintillation counting. In general terms: In a radioligand displacement assay an active substance lowers the binding of a labelled ligand.
Sequence of Sigma non-opioid intracellular receptor 1 (Q99720 whole entry): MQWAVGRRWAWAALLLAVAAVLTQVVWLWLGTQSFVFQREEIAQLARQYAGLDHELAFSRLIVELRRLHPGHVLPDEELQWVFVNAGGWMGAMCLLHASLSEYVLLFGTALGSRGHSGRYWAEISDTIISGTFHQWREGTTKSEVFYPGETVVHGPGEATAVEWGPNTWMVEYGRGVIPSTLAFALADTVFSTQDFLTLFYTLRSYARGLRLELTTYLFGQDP

Sequence of Sigma intracellular receptor 2 (Q5BJF2 whole entry): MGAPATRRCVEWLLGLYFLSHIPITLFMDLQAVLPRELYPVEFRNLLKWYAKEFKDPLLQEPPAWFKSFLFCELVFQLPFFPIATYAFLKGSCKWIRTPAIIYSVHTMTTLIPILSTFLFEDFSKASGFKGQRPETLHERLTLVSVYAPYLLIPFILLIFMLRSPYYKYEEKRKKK

By IC50 is commonly meant the midpoint of a concentration-inhibition curve. Take `CN(CCCNC(=O)c1ccc(F)cc1)Cc1ccccc1`: the concentration for half-maximal inhibition (IC50) with SH-SY5Y is more than 100000 nM. The selectivity ratio with S1R (sigma-1 receptor) was more than 5000.
For `CN(CCCNC(=O)c1cccc(Cl)c1)Cc1ccccc1`, in that order: more than 100000 nM and more than 10000.
As a reminder, the Ki is a measure of affinity in units of concentration, obtained from inhibition or displacement. Regarding `CN(CCCNC(=O)c1ccc(Br)cc1F)Cc1ccccc1`, in the series with SH-SY5Y, the IC50 is more than 100000 nM. In addition, the inhibitory constant (Ki) in series [1] was 200 nM. Further, the selectivity ratio with S1R (sigma-1 receptor) is more than 34500.
For the molecule `O=C(NCCCN1CCOCC1)c1ccc(Cl)cc1` [EPROBEMIDE], in the series on SH-SY5Y, the half-inhibitory concentration (IC50) was more than 100000 nM. Further, the Ki is more than 100 nM in series [2] and more than 200 nM in series [1].
Taken in the same sequence, the figures for `O=C(NCCN1CCCC1)c1ccc(Cl)cc1` were more than 100000 nM, more than 100 nM and more than 200 nM.
For `CN1CCN(CCNC(=O)c2ccc(Cl)cc2)CC1`, in that order: more than 100000 nM, more than 100 nM and more than 200 nM.
With `CN(CCCNC(=O)c1cc(Cl)cc(Cl)c1)Cc1ccccc1`, the IC50 in the series on SH-SY5Y was 60000 nM. For the same molecule, the selectivity ratio in the series on S1R (sigma-1 receptor) was found to be 2610.
On to `O=C(NCCN1CCOCC1)c1ccc(Cl)cc1` [MOCLOBEMIDE], for which the IC50 in the series with SH-SY5Y was more than 100000 nM. For the same molecule, the Ki was more than 100 nM in series [2] and more than 200 nM in series [1].
`CN(CCNC(=O)c1cccc(Cl)c1Cl)Cc1ccccc1`: in the series on SH-SY5Y, the IC50 was more than 100000 nM. In addition, the Ki is 6.5 nM in series [2] and 110 nM in series [1]. Moreover, in the series on S1R (sigma-1 receptor), the selectivity ratio is more than 15400.
For `O=C(NCCCN1Cc2ccccc2C1)c1ccc(Cl)cc1`, in that order: more than 100000 nM, 19 nM, 350 nM and more than 5260.
